# Measured values taken from patent US20100003223A1, “METHOD FOR THE PRODUCTION OF MULTICOMPONENT STEM CELLS, RELATIVE KITS AND USES IN THE MEDICAL FIELD” (Metapontium Agrobios S.R.L., priority 2006, published 2010).
# Assays:
# adipose cells = assay: Cell growth determination by BrdU incorporation; type: cell-based, human; conditions: adipose cells treated
# [1] = system: late-phase adipogenic markers (leptin, GLUT-4); assay: Semiquantitative PCR / RT-PCR of adipogenic marker expression; type: cell-based, human; conditions: preliminary results; FIG. 1: Ob gene (leptin), 175 μM
# Experimental: In order to amplify the cDNA obtained from the 5-Aza cultures treated, the following were used: • Eppendorf thermocycler Amplifier; • Specific primers designed with the help of the PrimerQuest program (http://biotools.idt.com) and Nucleotide database consultation (http://www.ncbi.nlm.nih.gov) and BLAST (Basic Local Alignment Search Tool) (http://www.ncbi.nlm.nih.gov/BLAST/).
# The primers were purchased from New England Biolabs.
# Amplification conditions: 95° C. for 10 minutes (initial denaturation), 30 cycles of 95° C. for 30 seconds (denaturation), 52° C. for 45 seconds (annealing), 72° C. for 45 seconds (extension), 72° C. for 10 minutes (final extension). The reaction mixture was prepared with 1 μl of cDNA, 1 μl of dNtPs Mix (10 mM), 1.25 μl of MgCl2 solution (25 mM), 1.25 μl of buffer 10×, 0.2 μl of Ampli Taq Gold (5U μl) (Applied Biosystem), 1 μl of specific sense primer and 1 μl of antisense primer (10 μM), […] of H2O RNase free in a final volume of 12.5 μl.
# The expression of the late-phase adipogenic markers (leptin, GLUT-4), precocious-phase markers (PPAR-γ, CEBP-α) and markers typical of the undifferentiated embryonic state (OCT4, SOX2, NANOG, SSEA-1, alkaline phosphatase) was evaluated by means of PCR and RT-PCR.
# adipocytes = assay: Determination of cell apoptosis (TACS Klenow In Situ Apoptotic Detection kit); type: cell-based, human
# mature adipose cells = assay: Morphological analysis of treated cultures by optical (phase contrast) microscopy
# Experimental: Human pre-adipocytes and embryonic cell lines 3T3-L1 were sown at a density of 5×10^3 cells/cm^2 and cultivated in Petri plates in a proliferative medium (DMEM-F12, 10% Fetal Calf Serum (FCS), 1% antibiotic-fungizone (AF)) until the maximum cell confluence is reached. The differentiative induction is obtained by 48 hour treatment in specific medium consisting of DMEM, 10% Fetal Bovine Serum (FBS), 1 AF and specific differentiating factors (insulin, isobutylmethylxanthine, dexamethasone, indomethacin). The mature differentiated form (univacuolar phenotype) is reached after culture of 7-10 days in maintenance medium, free of adipogenic inductive agents. Immunofluorescence studies verify the expression of leptin, a hormone typically expressed by adipocytes in adult phase.
# The mature adipose cells were maintained in a culture with DMEM, 10% FBS, 1 AF for two weeks, under continuous stimulation of 5′ Azacytidine at molar concentrations of 0.1 μM, 1 μM, 10 M, 100 μM, 125 μM, 150 μM, 175 μM, 250 μM.
# embryoid bodies = conditions: 1 μM, 6 hours; cited from earlier work
structure (smiles),measurement,setting,value
"Nc1ncn([C@@H]2O[C@H](CO)[C@@H](O)[C@H]2O)c(=O)n1 [5-Azacytidine, 5′ Aza 2′ cytidine]",cell proliferation by incorporated BrdU,adipose cells,Cell proliferation is observed
same,expression of the differentiative late-phase adipogenic markers,[1],a reduction in the expression
same,apoptotic phenomena,"adipocytes; 125 μM, 25 hours after treatment",15%
same,apoptotic phenomena,"adipocytes; 125 μM, 48 hours after treatment",15%
same,apoptotic phenomena,"adipocytes; 125 μM, 72 hours after treatment",10%
same,apoptotic phenomena,"adipocytes; 150 μM, 25 hours after treatment",22%
same,apoptotic phenomena,"adipocytes; 150 μM, 48 hours after treatment",28%
same,apoptotic phenomena,"adipocytes; 150 μM, 72 hours after treatment",10%
same,apoptotic phenomena,"adipocytes; 175 μM, 25 hours after treatment",38%
same,apoptotic phenomena,"adipocytes; 175 μM, 48 hours after treatment",41%
same,apoptotic phenomena,"adipocytes; 175 μM, 72 hours after treatment",10%
same,apoptosis of treated cultures (FIG. 7),mature adipose cells; 250 μM,a high apoptotic degree is observed
same,cell damage and/or cell proliferation (FIG. 8),mature adipose cells; doses ≦0.1 μM,no signs of cell damage and/or cell proliferation
same,morphology of the plate,"mature adipose cells; mainly at 1-10 μM and higher than 100 μM, 10 days of treatment, preliminary results",a change in the morphology of the plate
same,colony growth process and sensitivity to LIF,embryoid bodies,re-established the colony growth process typical of stem cells and the sensitivity to LEUKEMIA INHIBITORY FACTOR (LIF)
